According to patent publication US9266878B2, “Phosphatidylinositol 3-kinase inhibitors” (Gilead Calistoga LLC, priority 2012, dated 2016):

How the values were obtained:
Assay in all cases: Enzymatic activity of PI3K isoforms, TR-FRET assay (PIP3 formation)
Assay type in all cases: biochemical
PI3Kα = PI3Kα (Homo sapiens (Human), UniProt P42336); settings: bound given in uM
Experimental: (§1) Enzymatic activity of the class I PI3K isoforms was measured using a time-resolved fluorescence resonance energy transfer (TR-FRET) assay that monitors formation of the product 3,4,5-inositol triphosphate molecule (PIP3), as it competes with fluorescently labeled PIP3 for binding to the GRP-1 pleckstrin homology domain protein. An increase in […] product results in a decrease in TR-FRET signal as the labeled fluorophore is displaced from the GRP-1 protein binding site.
(§2) Class I PI3K isoforms were expressed and purified as heterodimeric recombinant proteins. All assay reagents and buffers for the TR-FRET assay were purchased from Millipore. […] After an assay reaction time of 30 minutes at 25° C., reactions were terminated with a final concentration of 10 mM EDTA, 10 nM labeled-PIP3, and 35 nM Europium labeled GRP-1 detector protein before reading TR-FRET on an Envision plate reader (Ex: 340 nm; Em: 615/665 nm; 100 μs delay and 500 μs read window).
(§3) IC50 are reported in units of nM. These assays generally produced results within 3-fold of the reported mean.

PI3Kδ = PI3Kδ (Homo sapiens (Human), UniProt O00329); settings: bound given in nM
Experimental: as §1, §2, §3

PI3Kγ = PI3Kγ (Homo sapiens (Human), UniProt P48736)
Experimental: as §1
Class I PI3K isoforms were expressed and purified as heterodimeric recombinant proteins. All assay reagents and buffers for the TR-FRET assay were purchased from Millipore.
IC50 are reported in units of nM.

Sequence of PI3Kγ (P48736 whole entry): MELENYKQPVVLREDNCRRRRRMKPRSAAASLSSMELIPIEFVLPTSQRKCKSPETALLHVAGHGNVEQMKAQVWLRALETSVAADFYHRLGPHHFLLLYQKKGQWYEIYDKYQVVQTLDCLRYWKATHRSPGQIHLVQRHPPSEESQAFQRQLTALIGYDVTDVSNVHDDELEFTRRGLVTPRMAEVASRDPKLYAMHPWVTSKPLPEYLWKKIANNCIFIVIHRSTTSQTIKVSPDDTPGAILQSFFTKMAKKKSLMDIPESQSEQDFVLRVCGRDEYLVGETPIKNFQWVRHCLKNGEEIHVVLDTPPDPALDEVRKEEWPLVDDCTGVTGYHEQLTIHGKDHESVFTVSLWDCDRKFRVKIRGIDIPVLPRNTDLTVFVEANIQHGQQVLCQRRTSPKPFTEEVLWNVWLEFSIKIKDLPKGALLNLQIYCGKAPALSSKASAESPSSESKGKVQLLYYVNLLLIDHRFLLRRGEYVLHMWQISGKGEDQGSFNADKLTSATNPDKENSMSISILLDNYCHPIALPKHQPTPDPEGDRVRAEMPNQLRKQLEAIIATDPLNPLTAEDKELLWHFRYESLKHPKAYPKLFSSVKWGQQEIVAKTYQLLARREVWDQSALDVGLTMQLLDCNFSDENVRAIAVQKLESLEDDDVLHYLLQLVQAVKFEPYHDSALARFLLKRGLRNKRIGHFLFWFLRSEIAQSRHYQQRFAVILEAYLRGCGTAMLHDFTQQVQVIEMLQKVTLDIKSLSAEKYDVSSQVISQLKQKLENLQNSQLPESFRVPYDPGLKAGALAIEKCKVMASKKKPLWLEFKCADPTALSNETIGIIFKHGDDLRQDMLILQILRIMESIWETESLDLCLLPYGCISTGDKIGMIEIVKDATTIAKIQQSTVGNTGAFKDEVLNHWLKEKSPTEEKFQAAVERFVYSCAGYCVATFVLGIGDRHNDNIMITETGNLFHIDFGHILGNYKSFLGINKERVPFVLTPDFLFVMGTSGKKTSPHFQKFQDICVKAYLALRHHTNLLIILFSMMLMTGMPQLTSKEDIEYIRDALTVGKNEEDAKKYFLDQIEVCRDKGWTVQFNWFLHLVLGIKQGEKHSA
Sequence of PI3Kγ (Q8WYR1 whole entry partner): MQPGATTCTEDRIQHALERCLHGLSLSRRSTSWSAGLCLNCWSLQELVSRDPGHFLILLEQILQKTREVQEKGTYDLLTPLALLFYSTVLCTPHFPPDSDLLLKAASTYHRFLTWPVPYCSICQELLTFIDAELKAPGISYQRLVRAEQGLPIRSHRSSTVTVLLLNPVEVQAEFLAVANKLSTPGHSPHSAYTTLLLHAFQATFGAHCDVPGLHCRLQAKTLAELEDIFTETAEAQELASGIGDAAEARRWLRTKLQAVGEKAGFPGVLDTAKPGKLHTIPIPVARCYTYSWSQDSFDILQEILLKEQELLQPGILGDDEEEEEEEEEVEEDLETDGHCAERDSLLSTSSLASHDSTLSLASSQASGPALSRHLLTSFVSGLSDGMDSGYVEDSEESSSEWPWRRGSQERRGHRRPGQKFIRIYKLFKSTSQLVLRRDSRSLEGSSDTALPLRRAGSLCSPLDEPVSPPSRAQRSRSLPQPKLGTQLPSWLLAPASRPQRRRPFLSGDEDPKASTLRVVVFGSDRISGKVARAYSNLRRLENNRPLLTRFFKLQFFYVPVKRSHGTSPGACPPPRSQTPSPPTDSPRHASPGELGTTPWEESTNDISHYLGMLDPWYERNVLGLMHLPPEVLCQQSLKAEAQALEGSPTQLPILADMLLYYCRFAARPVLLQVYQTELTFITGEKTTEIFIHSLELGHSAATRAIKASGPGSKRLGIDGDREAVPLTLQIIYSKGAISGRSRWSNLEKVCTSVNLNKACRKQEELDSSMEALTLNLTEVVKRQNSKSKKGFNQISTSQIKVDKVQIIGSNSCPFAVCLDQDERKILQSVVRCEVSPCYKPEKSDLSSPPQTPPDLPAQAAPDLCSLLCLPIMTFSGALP
Sequence of PI3Kα (P42336 whole entry, the tested form may be a part, canonical isoform): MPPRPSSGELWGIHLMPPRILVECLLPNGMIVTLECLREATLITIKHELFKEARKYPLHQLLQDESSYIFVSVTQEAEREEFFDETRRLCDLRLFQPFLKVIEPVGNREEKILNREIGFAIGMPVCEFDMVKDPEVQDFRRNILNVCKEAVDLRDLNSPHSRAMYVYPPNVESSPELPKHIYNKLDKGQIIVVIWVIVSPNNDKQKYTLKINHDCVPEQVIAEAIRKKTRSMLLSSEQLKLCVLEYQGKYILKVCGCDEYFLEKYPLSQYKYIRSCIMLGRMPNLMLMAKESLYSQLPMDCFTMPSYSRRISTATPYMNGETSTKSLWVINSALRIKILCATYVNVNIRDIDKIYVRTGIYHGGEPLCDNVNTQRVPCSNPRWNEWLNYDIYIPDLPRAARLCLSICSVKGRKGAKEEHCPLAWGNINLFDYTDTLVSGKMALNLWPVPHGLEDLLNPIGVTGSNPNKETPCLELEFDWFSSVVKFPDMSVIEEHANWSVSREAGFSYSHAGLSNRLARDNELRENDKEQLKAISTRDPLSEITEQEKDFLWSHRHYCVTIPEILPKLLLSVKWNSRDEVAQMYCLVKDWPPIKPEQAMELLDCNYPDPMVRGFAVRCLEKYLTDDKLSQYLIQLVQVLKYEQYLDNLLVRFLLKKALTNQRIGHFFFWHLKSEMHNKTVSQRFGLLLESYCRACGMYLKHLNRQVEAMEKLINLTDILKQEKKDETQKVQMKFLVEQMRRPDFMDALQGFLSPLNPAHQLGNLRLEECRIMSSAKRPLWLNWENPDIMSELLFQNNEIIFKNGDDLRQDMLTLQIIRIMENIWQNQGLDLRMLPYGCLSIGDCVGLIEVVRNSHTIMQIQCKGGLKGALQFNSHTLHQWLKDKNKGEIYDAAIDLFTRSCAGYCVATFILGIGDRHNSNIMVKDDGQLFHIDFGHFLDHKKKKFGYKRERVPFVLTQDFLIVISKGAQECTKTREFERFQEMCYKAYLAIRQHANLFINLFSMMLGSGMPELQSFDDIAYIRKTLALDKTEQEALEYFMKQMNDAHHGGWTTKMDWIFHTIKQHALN
Sequence of PI3Kα (P27986 whole entry partner, the tested form may be a part, canonical isoform): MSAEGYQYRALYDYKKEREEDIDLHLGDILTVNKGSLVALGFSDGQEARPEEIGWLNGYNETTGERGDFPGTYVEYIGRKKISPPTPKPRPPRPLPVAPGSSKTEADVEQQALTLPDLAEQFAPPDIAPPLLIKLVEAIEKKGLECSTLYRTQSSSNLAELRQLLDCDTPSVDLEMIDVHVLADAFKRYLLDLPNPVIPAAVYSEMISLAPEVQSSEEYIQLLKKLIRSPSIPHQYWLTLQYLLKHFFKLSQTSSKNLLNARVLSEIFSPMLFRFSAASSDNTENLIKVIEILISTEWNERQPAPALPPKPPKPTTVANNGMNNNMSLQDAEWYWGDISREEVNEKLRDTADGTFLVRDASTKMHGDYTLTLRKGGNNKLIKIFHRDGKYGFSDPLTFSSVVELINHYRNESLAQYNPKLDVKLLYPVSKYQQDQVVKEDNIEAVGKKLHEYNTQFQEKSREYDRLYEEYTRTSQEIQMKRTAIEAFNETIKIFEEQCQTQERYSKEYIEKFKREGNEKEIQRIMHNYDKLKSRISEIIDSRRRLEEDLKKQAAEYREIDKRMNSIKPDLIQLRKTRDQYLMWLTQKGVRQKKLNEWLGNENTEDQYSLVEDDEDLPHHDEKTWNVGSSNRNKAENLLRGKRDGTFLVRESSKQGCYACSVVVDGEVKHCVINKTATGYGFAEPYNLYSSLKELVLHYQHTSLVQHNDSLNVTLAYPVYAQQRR
Sequence of PI3Kδ (O00329 whole entry): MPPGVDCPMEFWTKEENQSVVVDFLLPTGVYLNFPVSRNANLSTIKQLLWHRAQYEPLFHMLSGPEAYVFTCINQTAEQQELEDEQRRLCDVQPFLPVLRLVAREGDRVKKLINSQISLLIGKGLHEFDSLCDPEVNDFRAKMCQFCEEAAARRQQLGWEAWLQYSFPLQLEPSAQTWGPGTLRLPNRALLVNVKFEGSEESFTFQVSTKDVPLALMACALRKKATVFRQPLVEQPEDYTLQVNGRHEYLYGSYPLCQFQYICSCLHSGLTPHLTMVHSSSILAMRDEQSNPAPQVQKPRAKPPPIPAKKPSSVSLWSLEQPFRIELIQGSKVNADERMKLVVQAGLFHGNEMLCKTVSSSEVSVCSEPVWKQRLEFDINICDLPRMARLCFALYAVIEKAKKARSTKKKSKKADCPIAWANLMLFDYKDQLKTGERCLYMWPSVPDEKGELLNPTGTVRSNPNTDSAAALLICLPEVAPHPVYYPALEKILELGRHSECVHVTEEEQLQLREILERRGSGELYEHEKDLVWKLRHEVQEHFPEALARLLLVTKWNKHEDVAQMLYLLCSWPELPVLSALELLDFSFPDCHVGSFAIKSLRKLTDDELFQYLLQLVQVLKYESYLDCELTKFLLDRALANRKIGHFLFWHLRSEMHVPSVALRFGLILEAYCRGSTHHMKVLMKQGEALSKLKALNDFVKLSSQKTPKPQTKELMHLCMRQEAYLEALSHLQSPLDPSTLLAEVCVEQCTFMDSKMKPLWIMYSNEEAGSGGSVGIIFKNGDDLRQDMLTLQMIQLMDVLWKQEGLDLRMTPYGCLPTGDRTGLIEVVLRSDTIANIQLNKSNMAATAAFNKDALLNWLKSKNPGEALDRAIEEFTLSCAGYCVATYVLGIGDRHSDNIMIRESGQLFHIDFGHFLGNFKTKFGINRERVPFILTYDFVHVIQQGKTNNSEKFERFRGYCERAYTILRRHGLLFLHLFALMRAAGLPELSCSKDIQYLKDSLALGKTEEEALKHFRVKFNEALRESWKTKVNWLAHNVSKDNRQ
Sequence of PI3Kδ (P27986 whole entry partner): as the sequence (P27986 whole entry partner, the tested form may be a part, canonical isoform) above

| SMILES | IC50 (PI3Kα) | IC50 (PI3Kδ) | IC50 (PI3Kγ; bound given in nM) | IC50 (PI3Kγ; bound given in uM) |
| --- | --- | --- | --- | --- |
| Cc1ccc(F)c2nc([C@H](C)Nc3ncnc(N)c3C#Cc3ccc(F)cn3)n(-c3ccccc3)c(=O)c12 [Compound 62a, (S)-2-(1-((6-amino-5-((5-fluoropyridin-2-yl)ethynyl)pyrimidin-4-yl)amino)ethyl)-8-fluoro-5-methyl-3-phenylquinazolin-4(3H)-one] | > 1 µM | < 100 nM | – | – |
| C[C@H](Nc1ncnc(N)c1C#Cc1cnccn1)c1nc2cccc(C(F)F)c2c(=O)n1-c1ccccc1 [Compound 76a, (S)-2-(1-((6-amino-5-(pyrazin-2-ylethynyl)pyrimidin-4-yl)amino)ethyl)-5-(difluoromethyl)-3-phenylquinazolin-4(3H)-one] | > 1 µM | < 100 nM | – | – |
| C[C@H](Nc1ncnc(N)c1C#Cc1cnccn1)c1nc2cccc(Cl)c2c(=O)n1-c1cccc(Cl)c1 [Compound 89a, (S)-2-(1-((6-amino-5-(pyrazin-2-ylethynyl)pyrimidin-4-yl)amino)ethyl)-5-chloro-3-(3-chlorophenyl)quinazolin-4(3H)-one] | > 1 µM | < 100 nM | – | – |
| C[C@H](Nc1ncnc(N)c1C#Cc1ncccn1)c1nc2cccc(Cl)c2c(=O)n1-c1ccccc1 [Compound 102a, (S)-2-(1-((6-amino-5-(pyrimidin-2-ylethynyl)pyrimidin-4-yl)amino)ethyl)-5-chloro-3-phenylquinazolin-4(3H)-one] | > 1 µM | < 100 nM | – | – |
| Cc1cccc2nc([C@H](C)Nc3ncnc(N)c3C#Cc3ncccn3)n(-c3ccccc3)c(=O)c12 [Compound 104a, (S)-2-(1-((6-amino-5-(pyrimidin-2-ylethynyl)pyrimidin-4-yl)amino)ethyl)-5-methyl-3-phenylquinazolin-4(3H)-one] | > 1 µM | < 100 nM | – | – |
| C[C@H](Nc1ncnc(N)c1C#Cc1ccccc1)c1nc2cccc(F)c2c(=O)n1-c1cccc(F)c1 [Compound 111a, (S)-2-(1-((6-amino-5-(phenylethynyl)pyrimidin-4-yl)amino)ethyl)-5-fluoro-3-(3-fluorophenyl)quinazolin-4(3H)-one] | > 1 µM | < 100 nM | – | – |
| C[C@H](Nc1ncnc(N)c1C#Cc1ccccc1)c1nc2cccc(C#N)c2c(=O)n1-c1ccccc1 [Compound 114a, (S)-2-(1-((6-amino-5-(phenylethynyl)pyrimidin-4-yl)amino)ethyl)-4-oxo-3-phenyl-3,4-dihydroquinazoline-5-carbonitrile] | > 1 µM | < 100 nM | – | – |
| C[C@H](Nc1ncnc(N)c1C#Cc1ccccc1)c1nc2cccc(F)c2c(=O)n1-c1cccnc1 [Compound 116a, (S)-2-(1-((6-amino-5-(phenylethynyl)pyrimidin-4-yl)amino)ethyl)-5-fluoro-3-(pyridin-3-yl)quinazolin-4(3H)-one] | – | < 100 nM | – | > 1000 nM |
| C[C@H](Nc1ncnc(N)c1C#Cc1cnccn1)c1nc2cccc(Cl)c2c(=O)n1-c1cccc(CNS(C)(=O)=O)c1 [Compound 123a, (S)—N-(3-(2-(1-((6-amino-5-(pyrazin-2-ylethynyl)pyrimidin-4-yl)amino)ethyl)-5-chloro-4-oxoquinazolin-3(4H)-yl)benzyl)methanesulfonamide] | > 1 µM | < 100 nM | – | – |
| C[C@H](Nc1ncnc(N)c1C#Cc1cc(C(F)(F)F)ccn1)c1nc2cccc(Cl)c2c(=O)n1-c1ccccc1 [Compound 148a, (S)-2-(1-((6-amino-5-((4-(trifluoromethyl)pyridin-2-yl)ethynyl)pyrimidin-4-yl)amino)ethyl)-5-chloro-3-phenylquinazolin-4(3H)-one] | > 1 µM | < 100 nM | – | – |
| C[C@H](Nc1ncnc(N)c1C#Cc1cccc(C(F)(F)F)n1)c1nc2cccc(Cl)c2c(=O)n1-c1ccccc1 [Compound 151a, (S)-2-(1-((6-amino-5-((6-(trifluoromethyl)pyridin-2-yl)ethynyl)pyrimidin-4-yl)amino)ethyl)-5-chloro-3-phenylquinazolin-4(3H)-one] | > 1 µM | < 100 nM | – | – |
| CC(=O)c1cccc(C#Cc2c(N)ncnc2N[C@@H](C)c2nc3cccc(Cl)c3c(=O)n2-c2ccccc2)n1 [Compound 153a, (S)-2-(1-((5-((6-acetylpyridin-2-yl)ethynyl)-6-aminopyrimidin-4-yl)amino)ethyl)-5-chloro-3-phenylquinazolin-4(3H)-one] | > 1 µM | < 100 nM | – | – |

Second part, the molecule after the results:

| IC50 (PI3Kα) | IC50 (PI3Kδ) | IC50 (PI3Kγ; bound given in nM) | IC50 (PI3Kγ; bound given in uM) | SMILES |
| --- | --- | --- | --- | --- |
| > 1 µM | < 100 nM | – | – | C[C@H](Nc1ncnc(N)c1C#Cc1ccc(F)cn1)c1nc2c(F)ccc(Cl)c2c(=O)n1-c1ccccc1 [Compound 6a, (S)-2-(1-(6-amino-5-((5-fluoropyridin-2-yl)ethynyl)pyrimidin-4-ylamino)ethyl)-5-chloro-8-fluoro-3-phenylquinazolin-4(3H)-one] |
| > 1 µM | < 100 nM | – | – | COc1ccc(C#Cc2c(N)ncnc2N[C@@H](C)c2nc3c(Cl)ccc(Cl)c3c(=O)n2-c2ccccc2)nc1 [Compound 10a, (S)-2-(1-(6-amino-5-((5-methoxypyridin-2-yl)ethynyl)pyrimidin-4-ylamino)ethyl)-5,8-dichloro-3-phenylquinazolin-4(3H)-one] |
| > 1 µM | < 100 nM | – | – | COc1ccc(C#Cc2c(N)ncnc2N[C@@H](C)c2nc3c(F)cccc3c(=O)n2-c2ccccc2)nc1 [Compound 12a, (S)-2-(1-(6-amino-5-((5-methoxypyridin-2-yl)ethynyl)pyrimidin-4-ylamino)ethyl)-8-fluoro-3-phenylquinazolin-4(3H)-one] |
| – | < 100 nM | < 100 nM | – | C[C@H](Nc1ncnc(N)c1C#Cc1cnc(N)cc1C(F)(F)F)c1nc2cccc(Cl)c2c(=O)n1-c1cc(F)cc(F)c1 [Compound 17a, (S)-2-(1-(6-amino-5-((6-amino-4-(trifluoromethyl)pyridin-3-yl)ethynyl)pyrimidin-4-ylamino)ethyl)-5-chloro-3-(3,5-difluorophenyl)quinazolin-4(3H)-one] |
| – | < 100 nM | < 100 nM | – | C[C@H](Nc1nc(N)nc(N)c1C#Cc1ccccc1)c1nc2cccc(Cl)c2c(=O)n1-c1ccccc1 [Compound 25a, 5-chloro-2-(1-((2,6-diamino-5-(phenylethynyl)pyrimidin-4-yl)amino)ethyl)-3-phenylquinazolin-4(3H)-one] |
| – | < 100 nM | – | – | C[C@H](Nc1ncnc(N)c1C#Cc1cnc(N)nc1)c1nc2cccc(Cl)c2c(=O)n1-c1cc(F)cc(F)c1 [Compound 32a, (S)-2-(1-(6-amino-5-((2-aminopyrimidin-5-yl)ethynyl)pyrimidin-4-ylamino)ethyl)-5-chloro-3-(3,5-difluorophenyl)quinazolin-4(3H)-one] |
| > 1 µM | < 100 nM | – | – | C[C@H](Nc1ncnc(N)c1C#Cc1ccc(N)cn1)c1nc2cccc(Cl)c2c(=O)n1-c1cc(F)cc(F)c1 [Compound 34a, (S)-2-(1-(6-amino-5-((5-aminopyridin-2-yl)ethynyl)pyrimidin-4-ylamino)ethyl)-5-chloro-3-(3,5-difluorophenyl)quinazolin-4(3H)-one] |
| > 1 µM | < 100 nM | – | – | Nc1ncnc(N2CCC[C@H]2c2nc3cccc(Cl)c3c(=O)n2-c2ccccc2)c1C#Cc1ccccn1 [Compound 37a, (S)-2-(1-(6-amino-5-(pyridin-2-ylethynyl)pyrimidin-4-yl)pyrrolidin-2-yl)-5-chloro-3-phenylquinazolin-4(3H)-one] |
| – | < 100 nM | – | – | CCNS(=O)(=O)c1cccc(-n2c([C@H](C)Nc3ncnc(N)c3C#Cc3ccccn3)nc3cccc(Cl)c3c2=O)c1 [Compound 39a, (S)-3-(2-(1-(6-amino-5-(pyridin-2-ylethynyl)pyrimidin-4-ylamino)ethyl)-5-chloro-4-oxoquinazolin-3(4H)-yl)-N-ethylbenzenesulfonamide] |
| – | < 100 nM | – | – | C[C@H](Nc1ncnc(N)c1C#Cc1ccccn1)c1nc2cccc(Cl)c2c(=O)n1-c1cccc(S(N)(=O)=O)c1 [Compound 40a, (S)-3-(2-(1-(6-amino-5-(pyridin-2-ylethynyl)pyrimidin-4-ylamino)ethyl)-5-chloro-4-oxoquinazolin-3(4H)-yl)benzenesulfonamide] |
| – | < 100 nM | < 100 nM | – | C[C@H](Nc1ncnc(N)c1C#Cc1cccnc1)c1nc2cccc(Cl)c2c(=O)n1-c1ccccc1 [Compound 44a, (S)-2-(1-(6-amino-5-(pyridin-3-ylethynyl)pyrimidin-4-ylamino)ethyl)-5-chloro-3-phenylquinazolin-4(3H)-one] |
| > 1 µM | < 100 nM | – | – | COc1cc(F)cc(C#Cc2c(N)ncnc2N[C@@H](C)c2nc3cccc(Cl)c3c(=O)n2-c2ccccc2)c1 [Compound 47a, (S)-2-(1-(6-amino-5-((3-fluoro-5-methoxyphenyl)ethynyl)pyrimidin-4-ylamino)ethyl)-5-chloro-3-phenylquinazolin-4(3H)-one] |
| > 1 µM | < 100 nM | – | – | C[C@H](Nc1ncnc(N)c1C#Cc1ccc(F)cn1)c1nc2cccc(Cl)c2c(=O)n1-c1ccccc1 [Compound 48a, (S)-2-(1-(6-amino-5-((5-fluoropyridin-2-yl)ethynyl)pyrimidin-4-ylamino)ethyl)-5-chloro-3-phenylquinazolin-4(3H)-one] |
| > 1 µM | < 100 nM | – | – | Cc1cccc2nc([C@H](C)Nc3ncnc(N)c3C#Cc3ccc(F)cn3)n(-c3ccccc3)c(=O)c12 [Compound 54a, (S)-2-(1-((6-amino-5-((5-fluoropyridin-2-yl)ethynyl)pyrimidin-4-yl)amino)ethyl)-5-methyl-3-phenylquinazolin-4(3H)-one] |
